Entries after “also recorded” stand apart in the source; their conditions may differ.
What was measured:
human SIN3A PAH2 domain = target: T1, human SIN3A PAH2 domain (Homo sapiens, UniProt Q96ST3); assay: Ligand-detected NMR, human SIN3A PAH2; type: binding, H. sapiens; details: 300 μM compound, 10 μM protein
T1 construct: Residues 301-390 of human SIN3A (PAH2 domain) were inserted into the pMALC2XE vector for NMR experiments; made in house; host or cells: E. coli BL21 (DE3)
Experimental: Ligand-detected NMR experiments: all results were acquired using a 3 mm tube at 25° C. on a Bruker 600 MHz Avance II system equipped with a CPPTCI cryoprobe (Bruker BioSpin Corp.). In all experiments, the concentration of E6R was fixed at 300 μM (from a stock of 25 mM in deuterated DMSO) and the concentration of the protein at 10 μM. The volume of deuterated DMSO was kept constant (1.5%) in all tested samples. Right before the experiments, the compound and protein were diluted in 1×PBS containing 0.1% deuterated dithiothreitol (DTT) to a total volume of 200 μL. Samples were diluted by 5% with D2O for magnetic field lock. Spectra were acquired for ligand only, protein only, and ligand+protein. […] STD experiments [Mayer et al 2001] were acquired with 160 scans, with protein irradiation applied for 3 s at 0 ppm and −20 ppm for the on and off resonance experiments, respectively. On and off resonance spectra were collected and stored separately. One-dimensional CPMG-R2 edited experiments [Hajduk et al 1997] were collected for samples with and without proteins using seven CPMG delays (0, 25, 50, 100, 300, 500, and 800 ms) with four scans per delay. Proton spectra used to measure DLB and chemical shift perturbations in the absence and presence of the proteins were recorded with 16 scans using a recycle delay of 3 s. […]

[1] = system: DOI-induced head-twitch response (HTR); assay: DOI-induced head-twitch response assay; type: in vivo, mouse
Excerpt: Adult male C57BL/6N mice (10-12 weeks old) purchased from Taconic laboratories (Bar Arbor, ME), and C57BL/6N Hdac2 cKO inhouse bred male mice (described previously in Ibi et al 2017) were used for the experimental groups (vehicle and E6R). For assays including Hdac2 cKO mice, we bred homozygous Hdac2loxPAoxP mice to the CaMKIIα-Cre transgenic line and used the Hdac2loxP/loxP:CaMKIIα-Cre (Hdac2 cKO) mice and control littermates. All animals were housed in groups of 5-6 in 500 cm^2 Plexiglas cages (Allentown, NJ) in the animal care facilities at 12 h light/dark cycle (lights on, 8:00 to 20:00) at 23° C. with food and water ad libitum. Cages contained bedding (Teklad ¼″ Corncob bedding, Envigo) and one Nestlests™ (Ancare, Bellmore, NY, USA). […] For the Hdac2 cKO group (n=5), an intraperitoneal injection (2 mg/kg; 10 μL/g) of the psychedelic drug (±)-2,5-dimethoxy-4-iodoamphetamine (DOI) (Sigma Aldrich) was delivered and HTR recorded and quantified. […] 24 h after the last injection, DOI (2 mg/kg; 10 μL/g) was injected and HTR subsequently recorded and quantified. […] HTR were recorded during both habituation and post-DOI administration for 30 min and quantified in 15 min bins. […] 24 h after the last injection, both groups received 2 mg/kg DOI, and HTR was recorded for each group as described above. […]

[2] = system: human neuroblastoma SK-N-BE(2)-C xenograft; assay: Neuroblastoma xenograft efficacy study; type: in vivo; details: E6R 50 mg/kg, SAHA 20 mg/kg
Experimental: Xenografts studies were performed at the TRACE PDX platform of the Leuven Cancer Institute (LKI) at KU Leuven-UZ Leuven. Treatment experiments included 24 NMRI-Foxlnu nude mice (Taconic) implanted with human neuroblastoma cell line SK-N-BE(2)-C(2 million cells/implant/mouse). Cells, tested for a full panel of murine pathogens (Impact profile I, IDEXX) prior to engraftment, were resuspended in 50% matrigel solution in PBS for injection in the mouse right flank. When tumors reached a volume of approximately 200 mm^3, mice were randomly assigned to vehicle (34% DMSO, 55% saline 0.9%, 5% ethanol, 5% kolliphor, 1% NaOH 1 M), E6R (50 mg/kg), or SAHA (20 mg/kg) treatment groups. Treatments were administered daily intraperitoneally for 10 days or until reaching human endpoint (i.e. tumor volume >1,500 mm^3). Tumors were measured daily with digital calipers, and volume was estimated as V=L×W×H×(π/6) (L: length; W: width; H: height). […] All data were analyzed using GraphPad Prism 8. Comparisons between the vehicle and treated groups were tested for statistical significance using […].

T1 sequence (Q96ST3 301-390): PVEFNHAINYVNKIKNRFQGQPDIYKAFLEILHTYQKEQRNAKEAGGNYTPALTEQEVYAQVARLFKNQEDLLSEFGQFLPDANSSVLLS

## C[C@@H](NC(=O)c1c(O)n2ccccc2nc1=O)c1ccccc1 [E6R, 4-hydroxy-2-oxo-N—((R)-1-phenylethyl)-3,4-dihydro-2H-pyrido[, 2-a]pyrimidine-3-carboxamide]
Human SIN3A PAH2 domain
  binding to human SIN3A PAH2 by NMR: could bind; also recorded: virtually identical to those of yeast Sin3 PAH2
[1]; HDAC2 cKO mice, 50 mg/kg chronic, vs untreated HDAC2 cKO
  DOI-induced HTR: no additive effect
[1]; WT mice, 50 mg/kg chronic 10 days, DOI 2 mg/kg
  DOI-induced HTR: significantly reduced
[2]; daily
  tolerability and body weight of xenografted mice: did not affect mice weight; also recorded: well-tolerated
[2]; daily intraperitoneally 10 days
  growth of neuroblastoma tumors compared to vehicle: significantly reduced the growth

Source: US20240299393A1, “SMALL MOLECULE DISRUPTORS OF PROTEIN INTERACTIONS IN HISTONE DEACETYLASE COMPLEXES” (Dana-Farber Cancer Institute, Inc., priority 2021, published 2024)
